Measurements reported in US8003659B2, “Macrocyclic serine protease inhibitors” (Indenix Pharmaceuticals, Inc., priority 2008, dated 2011).

Test system: genotype 1b replicon
Test: Antiviral activity in a genotype 1b replicon assay
Assay type: cell-based, HCV
Details: Hepatitis C virus; genotype 1b replicon assay as described in Example 32; read-out: EC50
Description: General procedure: Huh-7 cells containing HCV Con1 subgenomic replicon (GS4.1 cells) were grown in Dulbecco's Modified Eagle Medium (DMEM) supplemented with 10% fetal bovine serum (FBS), 2 mM L-glutamine, 110 mg/L sodium pyruvate, 1× non-essential amino acids, 100 U/mL penicillin-streptomycin, and 0.5 mg/mL G418 (Invitrogen). For dose-response testing, the cells were seeded in 96-well plates at 7.5×10^3 cells/well in a volume of 50 μL, and incubated at 37° C./5% CO2. Three hours after plating, 50 μL of ten 2-fold serial dilutions of compounds (highest concentration, 75 μM) were added, and cell cultures were incubated at 37° C./5% CO2 in the presence of 0.5% DMSO. Alternatively, compounds were tested at a single concentration of 15 μM. In all cases, Huh-7 cells lacking the HCV replicon served as negative control. The cells were incubated in the presence of compounds for 72 hr after which they were monitored for expression of the NS4A protein by enzyme-linked immunosorbent assay (ELISA). For this, the plates were then fixed for 1 min with acetone/methanol (1:1, v/v), washed twice with phosphate-buffered saline (PBS), 0.1% Tween 20, blocked for 1 hr at room temperature with TNE buffer containing 10% FBS and then incubated for 2 hr at 37° C. with the anti-NS4A mouse monoclonal antibody A-236 (ViroGen) diluted in the same buffer. After washing three times with PBS, 0.1% Tween 20, the cells were incubated 1 hr at 37° C. with anti-mouse immunoglobulin G-peroxidase conjugate in TNE, 10% FBS. After washing as described above, the reaction was developed with O-phenylenediamine (Zymed). The reaction was stopped after 30 min with 2 NH2SO4, and absorbance was read at 492 nm using Sunrise Tecan spectrophotometer. EC50 values were determined from the % inhibition versus concentration data using a sigmoidal non-linear regression analysis based on four parameters with Tecan Magellan software. When screening at a single concentration, the results were expressed as % inhibition at 15 μM.
Compounds were tested in a genotype 1b replicon assay as described in Example 32 and the results are summarized in Table 6, wherein A represents a value smaller than 1 μM, and B represents a value between 1 μM to 10 μM, C represents a value between 10 μM to 75 μM and D represents a value greater than 75 μM.

With `COc1ccc2c(O[C@H]3C[C@H]4C(=O)N(C)CCCC/C=C\[C@@H]5C[C@@]5(C(=O)NS(=O)(=O)C5CC5)NC(=O)N4C3)cc(-c3nc(C(C)C)cs3)nc2c1Cl` [Compound 62d, (Z)-(4R,6S,15S,17S)-[17-[8-chloro-7-methoxy-2-(4-isopropylthiazol-2-yl)quinolin-4-yloxy]-13-N-methyl-2,14-dioxo-1,3,13-triazatricyclo[13.3.0.0]octadec-7-en-4-yl]carbonyl(cyclopropyl)sulfonamide] the EC50 was < 1 µM.
